Where “and” joins values, the source holds several entries; their conditions need not be identical. Identical values can stand only once. Numbers after ± are expanded uncertainties.
How the values were obtained:
[1] = Liquid, Ebulliometric method (Recirculating still)
[2] = refractive index (Na D-line) (dimensionless); conditions: Liquid, Standard Abbe refractometry
[3] = refractive index (Na D-line) (dimensionless); xn = mol fraction of the nth substance listed; conditions: 293.15 K, 93.9 kPa, Liquid, Standard Abbe refractometry

In the case of `CC(=O)OC(C)C` [1-methylethyl ethanoate], the “vapor or sublimation pressure” value ([1]; 359.68 K) is reported as 93.9 ± 1 kPa, the refractive index ([2]; 293.15 K, 93.9 kPa) is reported as 1.3774 ± 0.006 and the refractive index ([2]; 298.15 K, 101.33 kPa) is reported as 1.37739 ± 0.006.
`CC(=O)OC(C)C` [1-methylethyl ethanoate] + COc1ccccc1 gave a refractive index ([3]; x1 = 0.1058) of 1.5013 ± 0.006, a refractive index ([3]; x1 = 0.1227) of 1.499 ± 0.006 and a refractive index ([3]; x1 = 0.1703) of 1.4924 ± 0.006. The refractive index ([3]; x1 = 0.1794) was 1.4915 ± 0.006, the refractive index ([3]; x1 = 0.2163) was 1.4872 ± 0.006 and the refractive index ([3]; x1 = 0.2803) was 1.4768 ± 0.006. The refractive index ([3]; x1 = 0.3303) was 1.4727 ± 0.006, the refractive index ([3]; x1 = 0.3684) was 1.4673 ± 0.006 and the refractive index ([3]; x1 = 0.4254) was 1.4561 ± 0.006. The refractive index ([3]; x1 = 0.4928) was 1.4481 ± 0.006, the refractive index ([3]; x1 = 0.5116) was 1.4445 ± 0.006 and the refractive index ([3]; x1 = 0.5769) was 1.4361 ± 0.006. It also gave a refractive index ([3]; x1 = 0.6338) of 1.4272 ± 0.006, a refractive index ([3]; x1 = 0.7247) of 1.4154 ± 0.006 and a refractive index ([3]; x1 = 0.8136) of 1.4026 ± 0.006. For the same molecule, the refractive index ([3]; x1 = 0.9006) was 1.3903 ± 0.006 and the refractive index ([3]; x1 = 1) was 1.3774 ± 0.006.
In the case of `COc1ccccc1` [anisole], the “vapor or sublimation pressure” value ([1]; 423.92 K) is reported as 93.9 ± 1 kPa, the refractive index ([2]; 293.15 K, 93.9 kPa) is reported as 1.5168 ± 0.006 and 1.5167 ± 0.006 and the refractive index ([2]; 298.15 K, 101.33 kPa) is reported as 1.51554 ± 0.006.
`COc1ccccc1` [anisole] + CC(=O)OC(C)C gave a refractive index ([3]; x2 = 0) of 1.5167 ± 0.006.
`COc1ccccc1` [anisole] + CCCOC(C)=O showed a refractive index ([3]; x2 = 0) of 1.5168 ± 0.006, a refractive index ([3]; x2 = 0.1119) of 1.5019 ± 0.006 and a refractive index ([3]; x2 = 0.1399) of 1.4979 ± 0.006. The refractive index ([3]; x2 = 0.1575) was 1.4954 ± 0.006, the refractive index ([3]; x2 = 0.2187) was 1.4875 ± 0.006 and the refractive index ([3]; x2 = 0.2418) was 1.4844 ± 0.006. The refractive index ([3]; x2 = 0.3387) was 1.4706 ± 0.006, the refractive index ([3]; x2 = 0.354) was 1.4687 ± 0.006 and the refractive index ([3]; x2 = 0.4168) was 1.4603 ± 0.006. It also gave a refractive index ([3]; x2 = 0.4759) of 1.4525 ± 0.006, a refractive index ([3]; x2 = 0.533) of 1.4451 ± 0.006 and a refractive index ([3]; x2 = 0.5833) of 1.4381 ± 0.006. It also gave a refractive index ([3]; x2 = 0.6096) of 1.435 ± 0.006, a refractive index ([3]; x2 = 0.6683) of 1.4268 ± 0.006 and a refractive index ([3]; x2 = 0.7081) of 1.4203 ± 0.006. The refractive index ([3]; x2 = 0.8047) was 1.4093 ± 0.006 and the refractive index ([3]; x2 = 0.8978) was 1.3968 ± 0.006.
Molecule `COc1ccccc1` [anisole] + CCOC(C)=O has a refractive index ([3]; x2 = 0) of 1.5168 ± 0.006, a refractive index ([3]; x2 = 0.1318) of 1.5002 ± 0.006 and a refractive index ([3]; x2 = 0.1651) of 1.4954 ± 0.006. It also gave a refractive index ([3]; x2 = 0.1818) of 1.4935 ± 0.006, a refractive index ([3]; x2 = 0.2131) of 1.4896 ± 0.006 and a refractive index ([3]; x2 = 0.2301) of 1.4867 ± 0.006. It also gave a refractive index ([3]; x2 = 0.3334) of 1.4735 ± 0.006, a refractive index ([3]; x2 = 0.3472) of 1.4712 ± 0.006 and a refractive index ([3]; x2 = 0.4119) of 1.4619 ± 0.006. For the same molecule, the refractive index ([3]; x2 = 0.4709) was 1.4548 ± 0.006, the refractive index ([3]; x2 = 0.4899) was 1.4518 ± 0.006 and the refractive index ([3]; x2 = 0.5481) was 1.4426 ± 0.006. For the same molecule, the refractive index ([3]; x2 = 0.6353) was 1.431 ± 0.0061, the refractive index ([3]; x2 = 0.6467) was 1.4243 ± 0.0061 and the refractive index ([3]; x2 = 0.718) was 1.4201 ± 0.006. For the same molecule, the refractive index ([3]; x2 = 0.7382) was 1.4142 ± 0.006, the refractive index ([3]; x2 = 0.8354) was 1.3989 ± 0.006 and the refractive index ([3]; x2 = 0.9091) was 1.3874 ± 0.006.
For `COc1ccccc1` [anisole] + COC(C)=O, the refractive index ([3]; x2 = 0) was 1.5168 ± 0.006, the refractive index ([3]; x2 = 0.1432) was 1.4995 ± 0.006 and the refractive index ([3]; x2 = 0.1704) was 1.497 ± 0.006. The refractive index ([3]; x2 = 0.2986) was 1.4855 ± 0.006, the refractive index ([3]; x2 = 0.3004) was 1.4826 ± 0.006 and the refractive index ([3]; x2 = 0.3323) was 1.4777 ± 0.006. It also gave a refractive index ([3]; x2 = 0.41) of 1.4692 ± 0.006, a refractive index ([3]; x2 = 0.4439) of 1.4625 ± 0.006 and a refractive index ([3]; x2 = 0.5057) of 1.4542 ± 0.006. The refractive index ([3]; x2 = 0.5405) was 1.451 ± 0.006, the refractive index ([3]; x2 = 0.6003) was 1.4372 ± 0.006 and the refractive index ([3]; x2 = 0.6354) was 1.4327 ± 0.006. For the same molecule, the refractive index ([3]; x2 = 0.6972) was 1.4233 ± 0.006, the refractive index ([3]; x2 = 0.814) was 1.3994 ± 0.006 and the refractive index ([3]; x2 = 0.8577) was 1.3909 ± 0.006. The refractive index ([3]; x2 = 0.9391) was 1.3743 ± 0.006.
With `CCOC(C)=O` [ethyl acetate] the “vapor or sublimation pressure” value ([1]; 347.92 K) was 93.9 ± 1 kPa, the refractive index ([2]; 293.15 K, 93.9 kPa) was 1.3724 ± 0.006 and the refractive index ([2]; 298.15 K, 101.33 kPa) was 1.37244 ± 0.006.
`CCOC(C)=O` [ethyl acetate] + COc1ccccc1 showed a refractive index ([3]; x1 = 1) of 1.3724 ± 0.006.
In the case of `COC(C)=O` [methyl ethanoate], the “vapor or sublimation pressure” value ([1]; 327.9 K) is reported as 93.9 ± 1 kPa, the refractive index ([2]; 293.15 K, 93.9 kPa) is reported as 1.3615 ± 0.006 and the refractive index ([2]; 298.15 K, 101.33 kPa) is reported as 1.36146 ± 0.006.
For `COC(C)=O` [methyl ethanoate] + COc1ccccc1, the refractive index ([3]; x1 = 1) was 1.3615 ± 0.006.
For `CCCOC(C)=O` [propyl ethanoate], the “vapor or sublimation pressure” value ([1]; 372.17 K) was 93.9 ± 1 kPa, the refractive index ([2]; 293.15 K, 93.9 kPa) was 1.3841 ± 0.006 and the refractive index ([2]; 298.15 K, 101.33 kPa) was 1.38406 ± 0.006.
`CCCOC(C)=O` [propyl ethanoate] + COc1ccccc1 showed a refractive index ([3]; x1 = 1) of 1.3841 ± 0.006.

Source: the NIST ThermoML archive (doi:10.1021/acs.jced.8b00063)
